The test system of the assay is arachidonic acid induced ear swelling. In words: topical arachidonic acid induced ear swelling model in mice. It counts as in vivo. The note with it: male ICR mice, applied 30 min before and 15 min after arachidonic acid, active compound 2 mg/ear x 2, indomethacin 3 mg/ear x 2, relative to lauryl lactate vehicle. Here is the method:
Male ICR mice weighing 22±2 g were used in the experiment. Arachidonic acid (2 mg in 20 μL acetone) was applied topically onto the anterior and posterior surfaces of the right ear of test animals. […] Ear swelling was then measured using a Dyer model micrometer gauge at 60, 90 and 120 minutes after arachidonic acid induction of ear edema as an index of inflammation.

SMILES strings stand for the structures.

Regarding `CS(=O)(=O)CCC(NCl)C(=O)O` (stereo not drawn) [Active compound/lauryl lactate, 2-N chloro-4-methylsulfonyl-butyric acid], the “%, ear swelling inhibition after arachidonic acid, 60 min.” value stood at 33%; the “%, ear swelling inhibition after arachidonic acid, 90 min.” value was determined as 31%; the “%, ear swelling inhibition after arachidonic acid, 120 min.” value was determined as 34%.

As for `COc1ccc2c(c1)c(CC(=O)O)c(C)n2C(=O)c1ccc(Cl)cc1` [Indomethacin/lauryl lactate, indomethacin], the “%, ear swelling inhibition after arachidonic acid, 60 min.” value was 71%; the “%, ear swelling inhibition after arachidonic acid, 90 min.” value turned out to be 65%; the “%, ear swelling inhibition after arachidonic acid, 120 min.” value stood at 70%.

The record behind these values is patent publication US7851650B2, “Compounds for treating inflammation and pain” (Olatec Industries LLC, priority 2009, dated 2010).
